Data set [1] deals with neonatal hypoxic-ischemic encephalopathy (HIE) in C57BL6 mice. The experiment in a line: TUNEL staining, dose dependency of apoptotic cell death in dentate gyrus, neonatal HIE mouse model. The class given is in vivo. Particulars: n=6, HIE untreated 141.7+56.6. The method, then: C57BL6 mice were subjected to complete unilateral carotid blockage using cauterizer at P10 followed by 45 min hypoxic exposure at 8% O2, and this was followed by daily oral gavage delivery of J147 in a range of doses or vehicle at P10-P14. Then animals were sacrificed and processed for TUNEL staining. In sham group, very few TUNEL+ cells are observed in dentate gyrus (DG, 4.7+4.1/each). […] For 10 μg/g/day group and 25 μg/g/day group, 42.2+23 (p<0.001) and 31.7+21.4 (p<0.001) cells are found in DG (One-way ANOVA; n=6).

The subject of data set [2] is neonatal hypoxic-ischemic brain injury in p10 C57BL6 mice. As to the kind of experiment: TTC staining infarct measurement in neonatal hypoxic-ischemic (HI) injury mouse model. The class given is in vivo. The method, then:
(§1) Postnatal day 10 mice were subjected to the modified Vanucci-Rice model of neonatal hypoxic-ischemic injury (permanent right common carotid artery ligation followed by 8% oxygen/balance nitrogen exposure) and then treatment started the same day by daily oral gavage with J147 at 10 mg/kg/day for 2 weeks after injury. Infarction volume, performance on functional tests of coordination, locomotion and memory, markers of neurogenesis, and apoptotic cell death were measured. Hypoxic-ischemic (HI) injury and J147 treatment: To induce HI injury, permanent right common carotid artery ligation was performed in p10 C57BL6 mice followed by 8% oxygen/balance nitrogen exposure for 45 min at 37° C. hypoxic chamber. From the day of HI injury, either J147 (10 mg/kg/day) or vehicle (corn oil, same volume) were once daily administered through oral gavage for a period of two weeks. TTC staining: 24 h after HI injury, 2 mm coronal brain sections were immersed in 1% 2,3,5-Triphenyltetrazolium chloride (TTC) at 37° C. for 30 min. Images of individual sections were digitized and infarct area was measured with the ImageJ software. Injury volumes were calculated using [contralateral hemisphere volume-(ipsilateral hemisphere volume-lesion volume)]/contralateral hemisphere volume×100.

Data set [3] concerns neonatal hypoxic-ischemia (HI) in mice. The experiment in a line: NeuN+ area and TUNEL+ cell count in hippocampus of HI mice.
Description: Neonatal hypoxic-ischemia (HI) was performed at P10 and daily 10 μg/g J147 was gavage-fed from P10 to P14.
The subject of data set [4] is neonatal hypoxic-ischemic brain injury in p10 C57BL6 mice. The experiment in a line: Rotarod test in HI mice. The class given is in vivo, mouse. Particulars: 5 weeks after HI. The method, then:
as §1, with “TTC staining: 24 h after HI injury, 2 mm coronal brain sections were immersed in 1% 2,3,5-Triphenyltetrazolium chloride (TTC) at 37° C. for 30 min. Images of individual sections were digitized and infarct area was measured with the ImageJ software. Injury volumes were calculated using [contralateral hemisphere volume-(ipsilateral hemisphere volume-lesion volume)]/contralateral hemisphere volume×100.” left out
Background: Falling from the rotarod earlier than controls is read as motor impairment.

For data set [5] the test system is unchanged. As to the kind of experiment: Postmortem MRI volumetric measurement of lesion in neonatal HI mouse model. The class given is in vivo. The method, then: Postnatal day 10 mice were subjected to the modified Vanucci-Rice model of neonatal hypoxic-ischemic injury (permanent right common carotid artery ligation followed by 8% oxygen/balance nitrogen exposure) and then treatment started the same day by daily oral gavage with J147 at 10 mg/kg/day for 2 weeks after injury. Infarction volume, performance on functional tests of coordination, locomotion and memory, markers of neurogenesis, and apoptotic cell death were measured. Hypoxic-ischemic (HI) injury and J147 treatment: To induce HI injury, permanent right common carotid artery ligation was performed in p10 C57BL6 mice followed by 8% oxygen/balance nitrogen exposure for 45 min at 37° C. hypoxic chamber. From the day of HI injury, either J147 (10 mg/kg/day) or vehicle (corn oil, same volume) were once daily administered through oral gavage for a period of two weeks. Magnetic resonance imaging (MRI): […] A 3D rapid acquisition with refocused echoes sequence was used (TE/TR=40/2000 ms, RARE factor=8, 4 signal averages, FOV=16.0 mm×9.0 mm×18.0 mm, matrix size=128×72×144, native resolution≈125×125×125 um3, time=3 h). Volumetric measurements were performed using ROI editor software.

The test system is the same in data set [6]. The experiment in a line: Open field test in HI mice. The class given is in vivo, mouse. As to conditions: 4 days post HI. Here is the method:
as §1, with “TTC staining: 24 h after HI injury, 2 mm coronal brain sections were immersed in 1% 2,3,5-Triphenyltetrazolium chloride (TTC) at 37° C. for 30 min. Images of individual sections were digitized and infarct area was measured with the ImageJ software. Injury volumes were calculated using [contralateral hemisphere volume-(ipsilateral hemisphere volume-lesion volume)]/contralateral hemisphere volume×100.” left out

For data set [7] the test system is unchanged. As to the kind of experiment: Neural precursor marker fluorescence staining in HI mice. The class given is in vivo, mouse.
For data set [8] the test system is unchanged. The experiment in a line: Y-maze spontaneous alternation test in HI mice. Particulars: 50 days after HI; p<0.001. In kind it is in vivo, mouse. Here is the method: as §1, with “TTC staining: 24 h after HI injury, 2 mm coronal brain sections were immersed in 1% 2,3,5-Triphenyltetrazolium chloride (TTC) at 37° C. for 30 min. Images of individual sections were digitized and infarct area was measured with the ImageJ software. Injury volumes were calculated using [contralateral hemisphere volume-(ipsilateral hemisphere volume-lesion volume)]/contralateral hemisphere volume×100.” left out

In data set [9] the test system is post-surgical cognitive dysfunction. Particulars: cited from earlier work; for Effect on post-surgical cognitive dysfunction: literature reports, after surgery.

Entries after “also recorded” stand apart in the source; their conditions may differ.

Turning to `COc1cccc(/C=N/N(C(=O)C(F)(F)F)c2ccc(C)cc2C)c1` [J147], the “TUNEL+ cells in dentate gyrus” value in [1] (0.5 μg/g/day oral gavage P10-P14, p>0.05) is 123.2+51.5 cells; in data set [1] (1 μg/g/day oral gavage P10-P14, p>0.05) it was 107.8+42.7 cells; in data set [1] (5 μg/g/day oral gavage P10-P14, p<0.01) it was 55+23.6 cells; in data set [1] (10 μg/g/day oral gavage P10-P14, p<0.001), 42.2+23 cells; in data set [1] (25 μg/g/day oral gavage P10-P14, p<0.001) it was 31.7+21.4 cells. For the same compound, in data set [2] (24 hours after HI injury, J147 10 mg/kg/day oral gavage, 10 mg/kg/day), the “Area of brain injury / lesion size by TTC staining (FIG. 2)” value was “reduced lesion size; also recorded: reduced areal extent of injury; also recorded: significantly reduces the area of brain injury”. In [2] (one day of J147 treatment, 10 mg/kg/day oral gavage, 24 h after HI injury, p<0.001), the “Infarct size as measured by TTC staining, reduction relative to HI controls” value turned out to be 48%. The “NeuN+ area in hippocampus” value in data set [3] (HI+J147, daily 10 μg/g gavage P10 to P14, SH 0.52, HI 0.32, p=0.0433) amounted to 0.45 mm2/section. Further, the “TUNEL+ apoptotic cells in hippocampus” value in [3] (HI+J147, daily 10 μg/g gavage P10 to P14, SH 36.33, HI 372.67, p=0.0092) is on record as 208.17 /section. For the same compound, the “Reduction in apoptotic cell death in the hippocampus” value in [3] (J147 treatment, summary) is reported as “roughly 50%”. In addition, the “Performance in the rotarod test” value in data set [4] is recorded as “significant improvement”. In addition, the “Rotarod test performance, improvement” value in [4] (chronic, J147 treatment group) is on record as “about 25%”. The “Ipsilateral hemisphere volume as percentage of contralateral hemisphere volume by MRI, area of brain injury (FIG. 3)” value in data set [5] (50 days after hypoxia-ischemia injury, J147 10 mg/kg/day for 2 weeks, 10 mg/kg/day) was “reduced lesion size; also recorded: substantial reduction of effect compared with HI; also recorded: almost entirely reduces the area of brain injury”. In addition, the “MRI reduction in infarction volume, HIJ mice compared with untreated HI mice” value in [5] (MRI measurements at 50 days) is listed as approximately 50%. The “MRI imaging reduction in lesion size” value in data set [5] (adult mice, two weeks of J147 treatment 10 mg/kg/day oral gavage, p<0.001) came out at 88%. The “Performance in the open field test” value in data set [6] is listed as “significant improvement”. Also, the “Open field test performance, improvement” value in data set [6] (J147 treatment group) was “about 25%”. Further, the Tbr2-positive cells result in [7] (at one week after injury) was “significant increase”. Moreover, the Nestin-positive cells result in data set [7] (one day and one week after injury) is “increased”. Moreover, the “Y-maze spatial learning task, improvement compared to HI controls” value in data set [8] is reported as 33%.
As to `COc1cc2c(cc1OC)C(=O)C(CC1CCN(Cc3ccccc3)CC1)C2` (stereo not shown) [donepezil], the “Effect on the overall cognitive index” value in data set [9] (patients with cognitive decline one year after cardiac surgery) is “had no effect”.
For `Cc1cccc([C@H](C)c2cnc[nH]2)c1C` [Dexmedetomidine], the “Effect on post-surgical cognitive dysfunction” value in data set [9] was “failed to show efficacy”.
As for `[Mg+2]` [Magnesium], the “Effect on post-surgical cognitive dysfunction” value in data set [9] is on record as “failed to reduce post-surgical cognitive dysfunction”.
In the case of `CCN(C)C(=O)Oc1cccc([C@H](C)N(C)C)c1` [Rivastigmine], the “Safety in seriously ill patients after surgery” value in data set [9] (clinical investigation NCT00835159, terminated) is “too dangerous”. For the same compound, in data set [9], the “Effect on post-surgical cognitive dysfunction” value was “no efficacy was observed”.

The record behind these values is patent publication US20210361598A1, “COMPOUNDS FOR PREVENTION AND TREATMENT OF POST-INTENSIVE CARE COGNITIVE DYSFUNCTION AND COGNITIVE DYSFUNCTION RESULTING FROM RESPIRATORY DISTRESS” (Abrexa Pharmaceuticals, Inc., priority 2020, published 2021).
